What was measured:
human LDHD [1] = target: T1, human LDHD (Homo sapiens, UniProt Q86WU2); assay: cytochrome c reduction, absorbance at […] nm; type: biochemical; conditions: 200 µM bovine heart cytochrome c as electron acceptor, 50 mM potassium phosphate pH 8.5; 10 mM substrate
T1 construct: ~50 kDa predicted, dimer by gel filtration
T1 sequence (Q86WU2 53-484 isoform Q86WU2-2): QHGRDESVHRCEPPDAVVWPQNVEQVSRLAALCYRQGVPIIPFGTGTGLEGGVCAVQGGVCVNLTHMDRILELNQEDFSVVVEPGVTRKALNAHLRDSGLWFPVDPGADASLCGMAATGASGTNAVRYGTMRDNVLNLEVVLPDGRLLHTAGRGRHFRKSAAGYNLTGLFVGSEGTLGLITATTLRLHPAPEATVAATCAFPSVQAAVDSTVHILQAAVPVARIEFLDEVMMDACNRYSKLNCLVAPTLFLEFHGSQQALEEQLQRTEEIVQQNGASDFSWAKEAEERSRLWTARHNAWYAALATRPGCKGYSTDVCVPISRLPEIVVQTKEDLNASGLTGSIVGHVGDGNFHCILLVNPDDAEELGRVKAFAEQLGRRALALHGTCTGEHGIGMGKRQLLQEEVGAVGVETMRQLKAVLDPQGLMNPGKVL

human LDHD [2] = target: T1, human LDHD; assay: cytochrome c reduction, absorbance at […] nm; type: biochemical; conditions: 200 µM bovine heart cytochrome c as electron acceptor, 50 mM potassium phosphate pH 8.5
[3] = target: human D-lactate dehydrogenase (LDHD) isoform 2 (Komagataella phaffii | human); assay: SEC; Superdex 200 10/300 GL, after elution from Talon cobalt resin; running buffer not stated

`CC[C@@H](O)C(=O)O` [D-2-hydroxybutyrate] was tested, and the “relative initial rate at 10 mM” value (human LDHD [1]) was “we identified D-2-hydroxybutyrate as another LDHD substrate that can be used to reduce cytochrome c”.
For `C[C@@H](O)C(=O)O` [D-lactate], the Km (human LDHD [2]) was 112 µM.
For “human D-lactate dehydrogenase (LDHD) isoform 2 (enzyme)”, the stoichiometry N [3] was 2.

Source: publication PMC11052718, “PMF-seq: a highly scalable screening strategy for linking genetics to mitochondrial bioenergetics” (Nature Metabolism, 2024)
